According to publication PMC6979384, “Characterization of the plant homeodomain (PHD) reader family for their histone tail interactions” (Epigenetics & Chromatin, 2020):

What was measured:
Experiment in all cases: Histone peptide microarray
Format in all cases: binding, human
AIRE (PP) = settings: GST-tagged AIRE (PP)
Summary of the method: (§1)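 Binding read as mean relative signal from 4 replicates; microarray held 293 synthetic histone peptides with single or combinatorial PTMs. Each GST-tagged PHD reader was applied at 0.5 μM using the optimized Petell protocol.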

BAZ2B = settings: GST-tagged BAZ2B
Summary of the method: as §1

BPTF (PB) = system: BPTF (PB)
Summary of the method: as §1

CHD4 (PPCC) = system: CHD4 (PPCC)
Summary of the method: as §1

CHD5 (PCC) = system: CHD5 (PCC)
Summary of the method: as §1

CHD5 (PPCC) = system: CHD5 (PPCC)
Summary of the method: as §1

DIDO1 = settings: GST-tagged DIDO1
Summary of the method: as §1

DPF2 (PPC2W2) = system: DPF2 (PPC2W2)
Summary of the method: as §1

ING1 = settings: GST-tagged ING1
Summary of the method: as §1

ING2 = settings: GST-tagged ING2
Summary of the method: as §1

ING3 = settings: GST-tagged ING3
Summary of the method: as §1

ING4 = settings: GST-tagged ING4
Summary of the method: as §1

ING5 = settings: GST-tagged ING5
Summary of the method: as §1

KDM4C (TTP) = system: KDM4C (TTP)
Summary of the method: as §1

KDM5A (1) = settings: GST-tagged KDM5A (1)
Summary of the method: as §1

KDM5A (3) = settings: GST-tagged KDM5A (3)
Summary of the method: as §1

KDM5B (1) = settings: GST-tagged KDM5B (1)
Summary of the method: as §1

KDM5B (3) = settings: GST-tagged KDM5B (3)
Summary of the method: as §1

KDM7A = settings: GST-tagged KDM7A
Summary of the method: as §1

MLL5 = settings: GST-tagged MLL5
Summary of the method: as §1

MORC3 (CW) = system: MORC3 (CW)
Summary of the method: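 Readout is array binding signal, reported as the mean and standard deviation over four replicates. Each purified GST-fused PHD domain was incubated at 0.5 μM with a library of 293 modified histone peptides.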

PHF13 = settings: GST-tagged PHF13
Summary of the method: as §1

PHF21A = settings: GST-tagged PHF21A
Summary of the method: as §1

PHF23 = settings: GST-tagged PHF23
Summary of the method: as §1

PHF2 = settings: GST-tagged PHF2
Summary of the method: as §1

PHF8 = settings: GST-tagged PHF8
Summary of the method: as §1

PHRF1 (RP) = settings: GST-tagged PHRF1 (RP)
Summary of the method: as §1

RAG2 = settings: GST-tagged RAG2
Summary of the method: as §1

SP140L = settings: GST-tagged SP140L
Summary of the method: as §1

TAF3 = settings: GST-tagged TAF3
Summary of the method: as §1

TRIM66 (PB) = system: TRIM66 (PB)
Summary of the method: as §1

[1] = sheet "Array Heatmap", arrays performed twice, total replicate number n = 4
[2] = sheet Array Heatmap, each array performed twice, total n = 4

Which results are given for H3 30-49: H3 30-49?
Array Heatmap signal, AIRE (PP) (AIRE (PP); [1]): 0.3585; Array Heatmap signal, BAZ2B (BAZ2B; [1]): 0.368; Array Heatmap signal, BPTF (PB) (BPTF (PB); sheet "Array Heatmap", GST-tagged BPTF (PB), arrays performed twice, total replicate number n = 4): 0.2984; Array Heatmap signal, CHD4 (PPCC) (CHD4 (PPCC); sheet "Array Heatmap", GST-tagged CHD4 (PPCC), arrays performed twice, total replicate number n = 4): 0.528; Array Heatmap signal, CHD5 (PCC) (CHD5 (PCC); sheet "Array Heatmap", GST-tagged CHD5 (PCC), arrays performed twice, total replicate number n = 4): 0.7179; Array Heatmap signal, CHD5 (PPCC) (CHD5 (PPCC); sheet "Array Heatmap", GST-tagged CHD5 (PPCC), arrays performed twice, total replicate number n = 4): 0.4615; Array Heatmap signal, DIDO1 (DIDO1; [1]): 0.6094; Array Heatmap signal, DPF2 (PPC2W2) (DPF2 (PPC2W2); sheet "Array Heatmap", GST-tagged DPF2 (PPC2W2), arrays performed twice, total replicate number n = 4): 0.6079; Array Heatmap signal, ING1 (ING1; [1]): 0.4722; Array Heatmap signal, ING2 (ING2; [1]): 0.5897; Array Heatmap signal, ING3 (ING3; [1]): 0.4287; Array Heatmap signal, ING4 (ING4; [1]): 0.3885; Array Heatmap signal, ING5 (ING5; [1]): 0.2813; Array Heatmap signal, KDM4C (TTP) (KDM4C (TTP); sheet "Array Heatmap", GST-tagged KDM4C (TTP), arrays performed twice, total replicate number n = 4): 0.4088; Array Heatmap signal, KDM5A (1) (KDM5A (1); [1]): 0.3827; Array Heatmap signal, KDM5A (3) (KDM5A (3); [1]): 0.3525; Array Heatmap signal, KDM5B (1) (KDM5B (1); [1]): 0.5482; Array Heatmap signal, KDM5B (3) (KDM5B (3); [1]): 0.3902; Array Heatmap signal, KDM7A (KDM7A; [1]): 0.3271; Array Heatmap signal, MLL5 (MLL5; [1]): 0.4726; Array Heatmap signal, MORC3 (CW) (MORC3 (CW); sheet "Array Heatmap", GST-tagged MORC3 (CW), arrays performed twice, total replicate number n = 4): 0.3313; Array Heatmap signal, PHF13 (PHF13; [1]): 0.5208; Array Heatmap signal, PHF21A (PHF21A; [1]): 0.4117; Array Heatmap signal, PHF23 (PHF23; [1]): 0.4894; Array Heatmap signal, PHF2 (PHF2; [1]): 0.4841; Array Heatmap signal, PHF8 (PHF8; [1]): 0.3204; Array Heatmap signal, PHRF1 (RP) (PHRF1 (RP); [1]): 0.3713; Array Heatmap signal, RAG2 (RAG2; [1]): 0.2065; Array Heatmap signal, SP140L (SP140L; [1]): 0.3311; Array Heatmap signal, TAF3 (TAF3; [1]): 0.2243; Array Heatmap signal, TRIM66 (PB) (TRIM66 (PB); sheet "Array Heatmap", GST-tagged TRIM66 (PB), arrays performed twice, total replicate number n = 4): 0.5425

How did the “Array Heatmap signal (histone peptide microarray)” value (AIRE (PP); [2]) turn out when “H3K4ac + K9ac + S10p + K14ac + K18ac: H3 1-20” was run?
Its value is 0.5295.

What about the “Array Heatmap signal (histone peptide microarray)” value (BAZ2B; [2]) of the same substance?
Its value is 0.5889.

What about the “Array Heatmap signal (histone peptide microarray)” value (BPTF (PB); GST-tagged BPTF (PB = PHD + Bromodomain), sheet Array Heatmap, each array performed twice, total n = 4) of the same substance?
The value was 0.3689.

And the “Array Heatmap signal (histone peptide microarray)” value (CHD4 (PPCC); GST-tagged CHD4 (PPCC = Dual PHD + Dual Chromodomain), sheet Array Heatmap, each array performed twice, total n = 4)?
Its value is 0.5822.

And the “Array Heatmap signal (histone peptide microarray)” value (CHD5 (PCC); GST-tagged CHD5 (PCC = PHD + Dual Chromodomain), sheet Array Heatmap, each array performed twice, total n = 4)?
The value was 0.8446.

And the “Array Heatmap signal (histone peptide microarray)” value (CHD5 (PPCC); GST-tagged CHD5 (PPCC = Dual PHD + Dual Chromodomain), sheet Array Heatmap, each array performed twice, total n = 4)?
The value was 0.5941.

What about the “Array Heatmap signal (histone peptide microarray)” value (DIDO1; [2]) of the same substance?
The value was 0.6753.

What about the “Array Heatmap signal (histone peptide microarray)” value (DPF2 (PPC2W2); GST-tagged DPF2 (PPC2W2 = Dual PHD + C2W2-type Zn-finger), sheet Array Heatmap, each array performed twice, total n = 4) of the same substance?
The value was 0.6938.

And the “Array Heatmap signal (histone peptide microarray)” value (ING1; [2])?
The value was 0.5313.

What about the “Array Heatmap signal (histone peptide microarray)” value (ING2; [2]) of the same substance?
The value was 0.5779.

What about the “Array Heatmap signal (histone peptide microarray)” value (ING3; [2]) of the same substance?
The value was 0.4823.

What about the “Array Heatmap signal (histone peptide microarray)” value (ING4; [2]) of the same substance?
Its value is 0.4935.

And the “Array Heatmap signal (histone peptide microarray)” value (ING5; [2])?
Its value is 0.3888.

What about the “Array Heatmap signal (histone peptide microarray)” value (KDM4C (TTP); GST-tagged KDM4C (TTP = Tandem Tudor domain + PHD), sheet Array Heatmap, each array performed twice, total n = 4) of the same substance?
The value was 0.5421.

And the “Array Heatmap signal (histone peptide microarray)” value (KDM5A (1); [2])?
The value was 0.5046.

What about the “Array Heatmap signal (histone peptide microarray)” value (KDM5A (3); [2]) of the same substance?
Its value is 0.4188.

And the “Array Heatmap signal (histone peptide microarray)” value (KDM5B (1); [2])?
Its value is 0.6478.

What about the “Array Heatmap signal (histone peptide microarray)” value (KDM5B (3); [2]) of the same substance?
Its value is 0.4819.

And the “Array Heatmap signal (histone peptide microarray)” value (KDM7A; [2])?
Its value is 0.4698.

What about the “Array Heatmap signal (histone peptide microarray)” value (MLL5; [2]) of the same substance?
The value was 0.555.

And the “Array Heatmap signal (histone peptide microarray)” value (MORC3 (CW); GST-tagged MORC3 (CW = CW-type Zn-finger), sheet Array Heatmap, each array performed twice, total n = 4)?
Its value is 0.3767.

And the “Array Heatmap signal (histone peptide microarray)” value (PHF13; [2])?
The value was 0.6482.

And the “Array Heatmap signal (histone peptide microarray)” value (PHF21A; [2])?
The value was 0.4919.

What about the “Array Heatmap signal (histone peptide microarray)” value (PHF23; [2]) of the same substance?
The value was 0.5331.

And the “Array Heatmap signal (histone peptide microarray)” value (PHF2; [2])?
Its value is 0.4731.

And the “Array Heatmap signal (histone peptide microarray)” value (PHF8; [2])?
The value was 0.3899.

What about the “Array Heatmap signal (histone peptide microarray)” value (PHRF1 (RP); [2]) of the same substance?
Its value is 0.429.

And the “Array Heatmap signal (histone peptide microarray)” value (RAG2; [2])?
The value was 0.2541.

What about the “Array Heatmap signal (histone peptide microarray)” value (SP140L; [2]) of the same substance?
The value was 0.3597.

What about the “Array Heatmap signal (histone peptide microarray)” value (TAF3; [2]) of the same substance?
Its value is 0.2701.

And the “Array Heatmap signal (histone peptide microarray)” value (TRIM66 (PB); GST-tagged TRIM66 (PB = PHD + Bromodomain), sheet Array Heatmap, each array performed twice, total n = 4)?
The value was 0.6786.
